Entries after “also recorded” stand apart in the source; their conditions may differ.
Assays:
adult rats = assay: inhibitory avoidance (IA) contextual fear memory task, intra-hippocampal injection; format: in vivo, rat; conditions: for avoidance memory (latency) vs vehicle: bilateral intra-hippocampal injection immediately after training
Procedure: FIG. 3. M6P injected into the hippocampus of rats enhances memory: dose-response curve. Experimental timeline is shown above graph. Rats received a bilateral intra-hippocampal injection of vehicle or different doses of IGF-2R.L1 (M6P) (↑) immediately after training in the contextual fear memory task inhibitory avoidance (IA). Memory retention was then tested at 24 hours (T1) and 7 days (T2) after training. Testing measured the latency to enter the compartment in which the animals received a foot shock during training. N=12/group. All data are expressed as the mean (±s.e.m.). Two-way repeated measures analysis of variance (ANOVA) followed by Bonferroni post-hoc tests. *P<0.05, **P<0.01, ***P<0.001. […] In these experiments, adult rats were trained in the inhibitory avoidance (IA) paradigm. In this paradigm the animals learn to avoid a chamber paired with a foot-shock.

Ube3a-/+ (AS) mice = assay: novel object recognition (nOR) paradigm in mouse model of Angelman syndrome; format: in vivo
Procedure: (§1) FIG. 2. M6P reverses object recognition memory deficits in a mouse model of Angelman syndrome and enhances memory in WT mice. Experimental timelines are shown above graphs. In all experiments mice received a s.c. injection of vehicle or M6P (↑) 20 min before nOR training or testing. Percent exploration preference for a novel object compared to a familiar object during novel object recognition of WT (Control) and Ube3a−/+(AS) mice injected with vehicle or M6P (labeled as IGF-2R.L1), 20 min before training, tested at 4 h and 24 h after training. N=4/group. All data are expressed as the mean (±s.e.m.). Two-way analysis of variance (ANOVA) followed by Tukey post-hoc tests. *P<0.05, **P<0.01, ***P<0.001.
(§2) FIG. 6. PnM6P (L2) reverses object recognition memory deficits in a mouse model of Angelman syndrome. Experimental timeline is shown above graphs. Mice received a s.c. injection of either vehicle or 850 μg/Kg of phosphonate-M6P (PnM6P) called IGF-2R.L2 (or L2) (↑) 20 min before either training or testing. (A) Percent exploration preference for a novel object compared to a familiar object during the nOR paradigm of wild type (WT served as Control mice) and Ube3a−/+(AS) mice injected with vehicle or L2 before training, and tested at 4 h, 24 h and 5 days (5d) after training. N=4/group. Data are expressed as the % mean±s.e.m. (B). Total time spent exploring the 2 objects during the nOR training session of WT and AS mice injected with vehicle or L2 20 min before training. N=4/per group. […] Data are expressed in seconds (s). Two-way analysis of variance (ANOVA) followed by Bonferroni post-hoc tests. *P<0.05, **P<0.01, ***P<0.001.
Specifically, we used the novel object recognition (nOR) paradigm in mice to assess non-aversive episodic memory. In this task, the innate preference for novelty of the rodent is used. During training, the mouse is allowed to explore 2 identical objects. On test day, one of the training objects is replaced with a novel object. Because mice have an innate preference for novelty, if the mouse recognizes the familiar object, it will spend more time at the novel object.

[1] = system: normal (wild type, WT) mice; assay: novel object recognition (nOR) paradigm in normal (wild type) mice; format: in vivo, mouse
Procedure: FIG. 1. Dose-response curve of the effect of M6P, also called IGF2R.L1 (L1) on nOR in normal (wild type, WT) mice. Experimental timeline is shown above graphs. Data are expressed as the mean±s.e.m. N=4 per group. One-way analysis of variance (ANOVA) followed by Bonferroni post-hoc tests. *P<0.05, **P<0.01. WT mice were injected s.c. with vehicle solution or different doses of IGF2R.L1 (L1) 20 min prior to training on nOR. Graphs show percent exploration preference for the novel object compared to the familiar object at testing performed at 4 h and 24 h after training.
as §1
FIG. 4. An M6P derivative, phosphonate M6P (PnM6P), enhances memory in mice. Experimental timeline is shown above graphs. Mice received a s.c. injection of either vehicle or 850 μg/Kg of phosphonate-M6P (PnM6P) called IGF-2R.L2 (or L2) (↑) 20 min before training. (A) Percent exploration preference for a novel object compared to a familiar object during the nOR paradigm of mice injected with vehicle or L2 20 min before training, and tested at 24 h (Test 1), 5 days (Test 2) and 14 days (Test 3) after training. N=8-10/group. Data are expressed as the % mean±s.e.m. (B). Total time spent exploring both objects during the nOR training session of mice injected with vehicle or L2 20 min before training. N=4 per group. […] Data are expressed in seconds (s). Two-way analysis of variance (ANOVA) followed by Bonferroni post-hoc tests. *P<0.05, **P<0.01, ***P<0.001.
FIG. 5. Comparing M6P (L1) and PnM6P (L2) effects on memory retention: both L1 and L2 similarly enhance nOR in mice. Experimental timeline is shown above graphs. Mice received a s.c. injection of either vehicle or 850 μg/Kg of phosphonate-M6P (PnM6P) called IGF-2R.L2 (or L2) or 850 μg/Kg of M6P (IGF-2R.L1 or L1) (↑) 20 min before training. (A) Percent exploration preference for a novel object compared to a familiar object during the nOR paradigm of mice injected with vehicle, L2 or L1 20 min before training, and tested at 24 h (Test 1), 5 days (Test 2) and 14 days (Test 3) after training. N=4-10/group. Data are expressed as the % mean±s.e.m. (B). Total time spent exploring both objects during the nOR training session of mice injected with vehicle, L2 or L1 20 min before training. N=2-4 per group. […] Data are expressed in seconds (s). Two-way analysis of variance (ANOVA) followed by Bonferroni post-hoc tests. *P<0.05, **P<0.01, ***P<0.001.
as §2, with “Two-way analysis of variance (ANOVA) followed by Bonferroni post-hoc tests. *P<0.05, **P<0.01, ***P<0.001.” left out

[2] = WT mice, 850 μg/Kg s.c. 20 min before training, tested 14 days after training

For O=C[C@@H](O)[C@@H](O)[C@H](O)[C@H](O)COP(=O)(O)O [L1, mannose-6-phosphate], the “avoidance memory (latency) vs vehicle” value (adult rats; retested 6 days later (7 days after training, T2)) was “effect persisted”, the “avoidance memory (latency) vs vehicle” value (adult rats; tested 1 day (24 h, T1) after training) was “significant increase in avoidance memory” and the “dose dependence of memory-enhancing effect” value (adult rats; bilateral intra-hippocampal injection, different doses) was “dose dependent”. The “nOR memory deficit reversal” value (Ube3a-/+ (AS) mice; s.c. injection 20 min before training, tested 4 h after training (FIG. 2)) was “reversed memory deficits in AS mice”, the “nOR memory retention vs vehicle” value (Ube3a-/+ (AS) mice; s.c. injection 20 min before training, tested 24 h after training (FIG. 2)) was “significantly increased memory retention in both groups” and the “nOR memory (exploration preference for novel object) vs vehicle” value ([1]; WT control mice, s.c. injection 20 min before training, tested 4 h after training (FIG. 2)) was “significant memory enhancement”. For the same compound, the “nOR memory retention vs vehicle” value ([1]; WT control mice, s.c. injection 20 min before training, tested 24 h after training (FIG. 2)) was “significantly increased memory retention in both groups” and the “nOR memory retention vs vehicle” value [1, 2] was “returned to baseline”.
For COC1OC(CCP(=O)(OCOC(=O)OC(C)C)OCOC(=O)OC(C)C)C(O)C(O)C1O [L2, Methyl 6-Deoxy-6-diisopropyloxycarbonyloxy-methyl-phosphinylmethyl-α-D-mannopyranoside], the “nOR memory deficit reversal” value (Ube3a-/+ (AS) mice; 850 μg/Kg s.c. 20 min before training, tested 4 h after training (FIG. 6)) was “reversed memory deficits in AS mice”, the “nOR memory vs vehicle” value (Ube3a-/+ (AS) mice; 850 μg/Kg s.c. 20 min before training, tested 24 h after training (FIG. 6)) was “significant memory in both groups” and the “nOR memory vs vehicle” value ([1]; WT mice, 850 μg/Kg s.c. 20 min before training, tested 4 h after training (FIG. 6)) was “enhanced memory”. The “nOR memory retention vs vehicle” value ([1]; WT mice, 850 μg/Kg s.c. 20 min before training, tested 24 h after training) was “significantly increased memory retention at both timepoints; also recorded: significant memory in both groups”, the “nOR memory retention vs vehicle” value ([1]; WT mice, 850 μg/Kg s.c. 20 min before training, tested 5 days after training) was “significantly increased memory retention at both timepoints” and the “nOR memory retention vs vehicle” value [1, 2] was “memory enhancement was no longer seen; also recorded: returned to baseline”.
